From patent publication US10238623B2, “C14-hydroxyl esterified amino acid derivative of triptolide, and preparation method and use thereof” (HANGZHOU WEBEN PHARMACEUTICALS INC, priority 2015, dated 2019)
pIC50: −log10 of the molar value.

Key:
L615 leukemia = conditions: mouse, in vivo; cited from earlier work
CEM = test: MTT growth inhibition, CEM cells, 72 h; type: cell-based, human
Experimental: (§1) 5000 well-grown leukemia cells or normal human blood cells were taken and seeded into wells of a 96-well cell culture plate. The medium was 1640 cell medium containing 10% fetal bovine serum. 14-D-Valine-TPL with different concentrations was added, and after being uniformly mixed, the plate was placed in a carbon dioxide (5% CO2) cell incubator, and incubated at 37° C. for 72 hours. The concentration of live cells was then determined using the MTT assay. In this experiment, the cell viability in the control group (without the compound treatment) was set to be 100%, and the cell viability (%) after the action of the compound the half maximal growth inhibitory concentration of leukemia cells at 72 hours (IC50 value at 72 hours) and the therapeutic window index were calculated. Therapeutic window index=IC50 value of normal blood cells/IC50 value of leukemia cells. […] A larger therapeutic window indicates a better selectivity of the compound for tumor cells.
(§2) 5000 well-grown leukemia cells were taken and seeded into wells of a 96-well cell culture plate. The medium was 1640 cell medium containing 10% fetal bovine serum. 14-D-Valine-TPL with different concentrations was added, and after being uniformly mixed, the plate was placed in a carbon dioxide (5% CO2) cell incubator, and incubated at 37° C. for 72 hours. The concentration of live cells was then determined using the MTT assay. In this experiment, the cell viability in the control group (without the compound treatment) was set to be 100%, and the cell viability (%) after the action of the compound and the half maximal growth inhibitory concentration of leukemia cells at 72 hours (IC50 value at 72 hours) were calculated.
as §2, with “well-grown lymphocytes” for “well-grown leukemia cells”

Molt-4 = test: MTT growth inhibition, Molt-4 cells, 72 h; type: cell-based, human; conditions: for Therapeutic window: IC50 of normal blood cells/IC50 of Molt-4
Experimental: as §1, §2
as §2, with “well-grown lymphocytes” for “well-grown leukemia cells”

Jurkat = test: MTT growth inhibition, Jurkat cells, 72 h; type: cell-based, human
Experimental: as §1, §2
as §2, with “well-grown lymphocytes” for “well-grown leukemia cells”

normal human blood cells = test: MTT assay, normal human blood cells, 72 h; type: cell-based; conditions: Homo sapiens, 72 h, Normal Blood Cell, Overall, MTT, read-out: IC50
Experimental: Leukemia cell strains: Sup-B15 (Ph+acute lymphoblastic leukemia), CEM (acute lymphoblastic leukemia, ALL), and Molt-4 (acute lymphoblastic leukemia, ALL). Normal blood cell samples: peripheral blood from healthy volunteers. • Primary reagent: 14-D-Valine-TPL of the invention. Primary instruments: cell incubator and microplate reader. (2) Experimental Method
as §1

[1] = oral and intravenous injection; cited from earlier work
Sup-B15 = test: MTT growth inhibition, Sup-B15 cells, 72 h; type: cell-based, human
Experimental: as §1, §2
as §2, with “well-grown lymphocytes” for “well-grown leukemia cells”

human leukemia = human leukemia (18/45); cited from earlier work

For CC(C)[C@]12O[C@H]1[C@@H]1O[C@]13[C@]1(O[C@H]1C[C@H]1C4=C(CC[C@@]13C)C(=O)OC4)[C@@H]2O [TPL, Triptolide], the “survival time of L615 leukemia mice” value (L615 leukemia) is given as “significantly prolong the survival time”, the pIC50 (CEM; Homo sapiens, CCRF-CEM, CEM, MTT, 72 hours, read-out: IC50) is given as 7.63 and the Therapeutic window (CEM; IC50 of normal blood cells/IC50 of CEM) is given as 0.93. For the same compound, the pIC50 (Molt-4; Homo sapiens, Molt-4, MTT, 72 hours, read-out: IC50) was 7.97, the Therapeutic window (Molt-4) was 2.03 and the Therapeutic window (Molt-4; listed as triptolide) was 2.0. For the same compound, the pIC50 (Jurkat; Homo sapiens, Jurkat, MTT, 72 hours, read-out: IC50) was 7.47, the Therapeutic window (Jurkat; IC50 of normal blood cells/IC50 of Jurkat) was 0.64 and the pIC50 (normal human blood cells) was 7.66. For the same compound, the “elimination half-life (in words)” value [1] was “short elimination half-life”, the pIC50 (Sup-B15; Homo sapiens, Sup-B15, MTT, 72 hours, read-out: IC50) was 7.64 and the Therapeutic window (Sup-B15; IC50 of normal blood cells/IC50 of Sup-B15) was 0.94. The complete remission rate (human leukemia) was “up to 40%”.
